Test results taken from ChEMBL document CHEMBL1139487, “Discovery of corticotropin releasing factor 2 receptor selective sauvagine analogues for treatment of skeletal muscle atrophy” (J Med Chem, 2005).

Key:
[1] = molecular target: T1, Corticotropin-releasing factor receptor 1 (Mus musculus, UniProt P35347); assay: In vitro effective concentration for mouse corticotropin releasing factor 1 receptor
T1 sequence (P35347 whole entry): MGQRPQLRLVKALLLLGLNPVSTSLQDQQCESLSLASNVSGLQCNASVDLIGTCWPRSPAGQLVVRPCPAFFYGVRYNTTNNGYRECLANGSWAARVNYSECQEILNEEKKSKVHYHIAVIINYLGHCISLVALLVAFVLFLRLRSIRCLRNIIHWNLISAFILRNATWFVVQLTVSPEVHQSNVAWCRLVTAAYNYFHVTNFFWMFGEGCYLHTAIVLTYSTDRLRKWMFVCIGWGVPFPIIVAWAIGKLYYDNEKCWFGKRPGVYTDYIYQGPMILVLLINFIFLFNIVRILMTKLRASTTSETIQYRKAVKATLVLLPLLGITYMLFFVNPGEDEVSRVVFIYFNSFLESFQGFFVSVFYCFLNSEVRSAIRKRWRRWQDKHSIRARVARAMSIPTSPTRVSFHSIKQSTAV

[2] = molecular target: Corticotropin-releasing factor receptor 2 (Mus musculus, UniProt Q60748); assay: In vitro effective concentration for mouse corticotropin releasing factor 2 receptor
[3] = molecular target: Corticotropin-releasing factor receptor 2 (Mus musculus) (UniProt Q60748); assay: In vitro agonistic activity against mouse corticotropin releasing factor 2 receptor; format: functional
[4] = molecular target: T2, Corticotropin-releasing factor receptor 1 (Mus musculus) (UniProt P35347); assay: In vitro agonistic activity against mouse corticotropin releasing factor 1 receptor; format: functional
T2 sequence (whole entry): T1 sequence (P35347 whole entry)

Chain of Corticotropin-releasing factor receptor 2 (Mus musculus) (Q60748 whole entry): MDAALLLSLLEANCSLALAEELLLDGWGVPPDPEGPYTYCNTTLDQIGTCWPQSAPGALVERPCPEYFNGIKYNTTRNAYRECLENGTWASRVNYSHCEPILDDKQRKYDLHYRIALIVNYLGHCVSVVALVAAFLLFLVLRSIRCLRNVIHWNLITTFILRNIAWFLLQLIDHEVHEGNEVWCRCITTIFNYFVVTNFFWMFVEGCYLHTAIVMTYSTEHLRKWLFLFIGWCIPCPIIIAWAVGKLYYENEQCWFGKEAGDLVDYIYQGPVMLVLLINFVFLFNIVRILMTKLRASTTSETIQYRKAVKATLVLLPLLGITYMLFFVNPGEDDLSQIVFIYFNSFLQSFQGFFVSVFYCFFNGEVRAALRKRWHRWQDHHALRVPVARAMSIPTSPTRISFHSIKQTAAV
Chain of Corticotropin-releasing factor receptor 2 (Q60748 whole entry): as above

| EC50 [1] [µM] | EC50 [2] [µM] | Emax [3] [%] | Emax [4] [%] | Molecule |
| --- | --- | --- | --- | --- |
| > 1 | 0.0223 |  |  | CC[C@H](C)[C@H](NC(=O)[C@@H](NC(=O)[C@H](CC(=O)O)NC(=O)[C@H](CC(C)C)NC(=O)[C@H](CC(C)C)NC(=O)[C@H](CC(C)C)NC(=O)[C@H](CCCNC(=N)N)NC(=O)[C@H](CC(N)=O)NC(=O)[C@H](CC(N)=O)NC(=O)[C@H](C)NC(=O)[C@H](C)NC(=O)[C@H](CCC(N)=O)NC(=O)[C@H](CCC(N)=O)NC(=O)[C@H](CCCCN)NC(=O)[C@H](CCC(=O)O)NC(=O)[C@H](CCCCN)NC(=O)[C@H](CCC(=O)O)NC(=O)[C@H](CCC(N)=O)NC(=O)[C@H](CCCCN)NC(=O)[C@H](CCC(=O)O)NC(=O)[C@@H](NC(=O)[C@H](CCC(=O)O)NC(=O)[C@@H](NC(=O)[C@H](CCSC)NC(=O)[C@H](CCCCN)NC(=O)[C@H](CCCNC(=N)N)NC(=O)[C@H](CC(C)C)NC(=O)[C@H](CC(C)C)NC(=O)[C@H](Cc1ccc(O)cc1)NC(=O)[C@@H](NC(=O)[C@@H]1CCCN1C(=O)[C@H](CC(C)C)NC(=O)[C@H](CC(=O)O)NC(=O)[C@@H](NC(=O)[C@H](CO)NC(=O)[C@@H](NC(=O)[C@@H]1CCCN1C(=O)[C@@H]1CCCN1C(=O)CNC(=O)[C@@H]1CCC(=O)N1)[C@@H](C)CC)[C@@H](C)CC)[C@@H](C)CC)[C@@H](C)CC)[C@@H](C)CC)[C@@H](C)O)C(=O)O |
| 0.0636 | 0.0041 |  |  | CC[C@H](C)[C@H](NC(=O)[C@@H](NC(=O)[C@H](CC(=O)O)NC(=O)[C@H](CC(C)C)NC(=O)[C@H](CC(C)C)NC(=O)[C@H](CC(C)C)NC(=O)[C@H](CCCNC(=N)N)NC(=O)[C@H](CC(N)=O)NC(=O)[C@H](CC(N)=O)NC(=O)[C@H](C)NC(=O)[C@H](C)NC(=O)[C@H](CCC(N)=O)NC(=O)[C@H](CCC(N)=O)NC(=O)[C@H](CCCCN)NC(=O)[C@H](CCC(=O)O)NC(=O)[C@H](CCCCN)NC(=O)[C@H](CCC(=O)O)NC(=O)[C@H](CCC(N)=O)NC(=O)[C@H](CCCCN)NC(=O)[C@H](CCC(=O)O)NC(=O)[C@@H](NC(=O)[C@H](CCC(=O)O)NC(=O)[C@@H](NC(=O)[C@H](CCSC)NC(=O)[C@H](CCCCN)NC(=O)[C@H](CCCNC(=N)N)NC(=O)[C@H](CC(C)C)NC(=O)[C@H](CC(C)C)NC(=O)[C@H](Cc1ccccc1)NC(=O)[C@H](Cc1ccc(O)cc1)NC(=O)[C@@H]1CCCN1C(=O)[C@H](CC(C)C)NC(=O)[C@H](CC(=O)O)NC(=O)[C@@H](NC(=O)[C@H](CO)NC(=O)[C@@H](NC(=O)[C@@H]1CCCN1C(=O)[C@@H]1CCCN1C(=O)CNC(=O)[C@@H]1CCC(=O)N1)[C@@H](C)CC)[C@@H](C)CC)[C@@H](C)CC)[C@@H](C)CC)[C@@H](C)O)C(=O)O |
| 0.325 | 0.0107 |  |  | CC[C@H](C)[C@H](NC(=O)[C@@H](NC(=O)[C@H](CC(=O)O)NC(=O)[C@H](CC(C)C)NC(=O)[C@H](CC(C)C)NC(=O)[C@H](CC(C)C)NC(=O)[C@H](CCCNC(=N)N)NC(=O)[C@H](CC(N)=O)NC(=O)[C@H](CC(N)=O)NC(=O)[C@H](C)NC(=O)[C@H](C)NC(=O)[C@H](CCC(N)=O)NC(=O)[C@H](CCC(N)=O)NC(=O)[C@H](CCCCN)NC(=O)[C@H](CCC(=O)O)NC(=O)[C@H](CCCCN)NC(=O)[C@H](CCC(=O)O)NC(=O)[C@H](CCC(N)=O)NC(=O)[C@H](CCCCN)NC(=O)[C@H](CCC(=O)O)NC(=O)[C@@H](NC(=O)[C@H](CCC(=O)O)NC(=O)[C@@H](NC(=O)[C@H](CCSC)NC(=O)[C@H](CCCCN)NC(=O)[C@H](CCCNC(=N)N)NC(=O)[C@H](CC(C)C)NC(=O)[C@H](CC(C)C)NC(=O)[C@H](Cc1ccc(O)cc1)NC(=O)[C@H](CCC(N)=O)NC(=O)[C@@H]1CCCN1C(=O)[C@H](CC(C)C)NC(=O)[C@H](CC(=O)O)NC(=O)[C@@H](NC(=O)[C@H](CO)NC(=O)[C@@H](NC(=O)[C@@H]1CCCN1C(=O)[C@@H]1CCCN1C(=O)CNC(=O)[C@@H]1CCC(=O)N1)[C@@H](C)CC)[C@@H](C)CC)[C@@H](C)CC)[C@@H](C)CC)[C@@H](C)O)C(=O)O |
|  |  | 82 | 87 | CC[C@H](C)[C@H](NC(=O)[C@@H](NC(=O)[C@H](CCC(=O)O)NC(=O)[C@H](CCSC)NC(=O)[C@H](CC(C)C)NC(=O)[C@H](CCCCN)NC(=O)[C@H](CCCN=C(N)N)NC(=O)[C@H](CC(N)=O)NC(=O)[C@H](CO)NC(=O)[C@H](Cc1c[nH]cn1)NC(=O)[C@H](C)NC(=O)[C@H](CCC(N)=O)NC(=O)[C@H](CCC(N)=O)NC(=O)[C@H](C)NC(=O)[C@H](CC(C)C)NC(=O)[C@H](CCC(N)=O)NC(=O)[C@H](CCC(=O)O)NC(=O)[C@H](C)NC(=O)[C@H](CCCN=C(N)N)NC(=O)[C@H](C)NC(=O)[C@H](CCSC)NC(=O)[C@H](CCC(=O)O)NC(=O)[C@H](CC(C)C)NC(=O)[C@@H](NC(=O)[C@H](CCC(=O)O)NC(=O)[C@H](CCCN=C(N)N)NC(=O)[C@H](CC(C)C)NC(=O)[C@H](CC(C)C)NC(=O)[C@H](Cc1c[nH]cn1)NC(=O)[C@H](Cc1ccccc1)NC(=O)[C@@H](NC(=O)[C@H](CC(C)C)NC(=O)[C@H](CC(=O)O)NC(=O)[C@H](CC(C)C)NC(=O)[C@H](CO)NC(=O)[C@@H](NC(=O)[C@@H]1CCCN1C(=O)[C@@H]1CCCN1C(=O)[C@H](CCC(=O)O)NC(=O)[C@H](CCC(=O)O)NC(=O)[C@@H](N)CO)[C@@H](C)CC)[C@@H](C)O)C(C)C)[C@@H](C)CC)C(=O)O |
| 0.423 | 0.0065 |  |  | CC[C@H](C)[C@H](NC(=O)[C@@H](NC(=O)[C@H](CC(=O)O)NC(=O)[C@H](CC(C)C)NC(=O)[C@H](CC(C)C)NC(=O)[C@H](CC(C)C)NC(=O)[C@H](CCCNC(=N)N)NC(=O)[C@H](CC(N)=O)NC(=O)[C@H](CC(N)=O)NC(=O)[C@H](C)NC(=O)[C@H](C)NC(=O)[C@H](CCC(N)=O)NC(=O)[C@H](CCC(N)=O)NC(=O)[C@H](CCCCN)NC(=O)[C@H](CCC(=O)O)NC(=O)[C@H](CCCCN)NC(=O)[C@H](CCC(=O)O)NC(=O)[C@H](CCC(N)=O)NC(=O)[C@H](CCCCN)NC(=O)[C@H](CCC(=O)O)NC(=O)[C@@H](NC(=O)[C@H](CCC(=O)O)NC(=O)[C@@H](NC(=O)[C@H](CCSC)NC(=O)[C@H](CCCCN)NC(=O)[C@H](CCCNC(=N)N)NC(=O)[C@H](CC(C)C)NC(=O)[C@H](CC(C)C)NC(=O)[C@H](CCC(N)=O)NC(=O)[C@H](CC(C)C)NC(=O)[C@@H]1CCCN1C(=O)[C@H](CC(C)C)NC(=O)[C@H](CC(=O)O)NC(=O)[C@@H](NC(=O)[C@H](CO)NC(=O)[C@@H](NC(=O)[C@@H]1CCCN1C(=O)[C@@H]1CCCN1C(=O)CNC(=O)[C@@H]1CCC(=O)N1)[C@@H](C)CC)[C@@H](C)CC)[C@@H](C)CC)[C@@H](C)CC)[C@@H](C)O)C(=O)O |
|  |  | 96 | 8 | H-IVLSLDVPIGLLQILLEQARARAAREQATTNARILARV-OH |
| 0.02 |  |  |  | CC[C@H](C)[C@H](NC(=O)[C@@H](NC(=O)[C@H](CCC(=O)O)NC(=O)[C@H](CCSC)NC(=O)[C@H](CC(C)C)NC(=O)[C@H](CCCCN)NC(=O)[C@H](CCCNC(=N)N)NC(=O)[C@H](CC(N)=O)NC(=O)[C@H](CO)NC(=O)[C@H](Cc1c[nH]cn1)NC(=O)[C@H](C)NC(=O)[C@H](CCC(N)=O)NC(=O)[C@H](CCC(N)=O)NC(=O)[C@H](C)NC(=O)[C@H](CC(C)C)NC(=O)[C@H](CCC(N)=O)NC(=O)[C@H](CCC(=O)O)NC(=O)[C@H](C)NC(=O)[C@H](CCCNC(=N)N)NC(=O)[C@H](C)NC(=O)[C@H](CCSC)NC(=O)[C@H](CCC(=O)O)NC(=O)[C@H](CC(C)C)NC(=O)[C@@H](NC(=O)[C@H](CCC(=O)O)NC(=O)[C@H](CCCNC(=N)N)NC(=O)[C@H](CC(C)C)NC(=O)[C@H](CC(C)C)NC(=O)[C@H](Cc1c[nH]cn1)NC(=O)[C@H](Cc1ccccc1)NC(=O)[C@@H](NC(=O)[C@H](CC(C)C)NC(=O)[C@H](CC(=O)O)NC(=O)[C@H](CC(C)C)NC(=O)[C@H](CO)NC(=O)[C@@H](NC(=O)[C@@H]1CCCN1C(=O)[C@@H]1CCCN1C(=O)[C@H](CCC(=O)O)NC(=O)[C@H](CCC(=O)O)NC(=O)[C@@H](N)CO)[C@@H](C)CC)[C@@H](C)O)C(C)C)[C@@H](C)CC)C(N)=O [HUMAN CORTICOTROPIN RELEASING FACTOR] |
|  |  | 95 | 99 | CC[C@H](C)[C@H](NC(=O)[C@@H](NC(=O)[C@H](CC(=O)O)NC(=O)[C@H](CC(C)C)NC(=O)[C@H](CC(C)C)NC(=O)[C@H](CC(C)C)NC(=O)[C@H](CCCN=C(N)N)NC(=O)[C@H](CC(N)=O)NC(=O)[C@H](CC(N)=O)NC(=O)[C@H](C)NC(=O)[C@H](C)NC(=O)[C@H](CCC(N)=O)NC(=O)[C@H](CCC(N)=O)NC(=O)[C@H](CCCCN)NC(=O)[C@H](CCC(=O)O)NC(=O)[C@H](CCCCN)NC(=O)[C@H](CCC(=O)O)NC(=O)[C@H](CCC(N)=O)NC(=O)[C@H](CCCCN)NC(=O)[C@H](CCC(=O)O)NC(=O)[C@@H](NC(=O)[C@H](CCC(=O)O)NC(=O)[C@@H](NC(=O)[C@H](CCSC)NC(=O)[C@H](CCCCN)NC(=O)[C@H](CCCN=C(N)N)NC(=O)[C@H](CC(C)C)NC(=O)[C@H](CC(C)C)NC(=O)[C@H](CCC(=O)O)NC(=O)[C@H](CC(C)C)NC(=O)[C@H](CO)NC(=O)[C@H](CC(C)C)NC(=O)[C@H](CC(=O)O)NC(=O)[C@@H](NC(=O)[C@H](CO)NC(=O)[C@@H](NC(=O)[C@@H]1CCCN1C(=O)[C@@H]1CCCN1C(=O)CNC(=O)[C@@H]1CCC(=O)N1)[C@@H](C)CC)[C@@H](C)CC)[C@@H](C)CC)[C@@H](C)CC)[C@@H](C)O)C(=O)O [SAUVAGINE] |
